Data taken from patent US20160287534A1, “METHODS FOR REVERSING FIBROSIS” (The University of Connecticut, priority 2015, published 2016).

Assays:
LX-2 cells [1] = assay: qRT-PCR of TGFβ1-induced fibrogenic and TGFβ1 signaling genes in LX-2 cells; type: cell-based
Protocol: LX-2 cells were kindly provided by Dr. Scott Friedman at the Icahn School of Medicine at Mount Sinai (New York, N.Y.). Cells were maintained in low-glucose DMEM containing 2% FBS, 4 mM 1-glutamine, 100 U/mL penicillin and 100 μg/mL streptomycin in a 37° C. humidified cell culture chamber providing 5% CO2. LX-2 cells were incubated with varying concentrations of ASTX for 12 or 24 h, and subsequently activated by 2 ng/mL of TGFβ1 (Peprotech, Rocky Hill, N.J.) for 1 to 24 h. Primary mouse HSCs were plated on untreated petri dishes (BD Falcon, Franklin Lakes, N.J.) and maintained in low-glucose DMEM supplemented with 10% FBS, 4 mM L-glutamine, 100 U/mL penicillin and 100 μg/mL streptomycin in a 37° C. humidified cell culture chamber under 5% CO2. ASTX (25 μM) was added at day 2 or day 4 after plating until day 6 with daily media change. All cell culture supplies were purchased from HyClone (Thermo Scientific, Logan, Utah).
(§1) Total RNA extraction, cDNA synthesis, and qRT-PCR were conducted using a Bio-Rad CFX96 Real-Time system (Bio-Rad, Hercules, Calif.) as previously described (see Park et al. Nutr. Res. 2008, vol. 28, pp. 83-91; Rasmussen et al. J. Nutr. 2008, vol. 138, pp. 476-481). Gene sequences were obtained from the GenBank database and primers were designed using Beacon Designer (Premier Biosoft, Palo Alto, Calif.). Primer sequences are available (see supplemental table of Yang et al. Biochimica et Biophysica Acta 2015, vol. 1850, pp. 178-185).

LX-2 cells [2] = assay: Reactive oxygen species (ROS) measurement in LX-2 cells stimulated with TGFβ1 or tBHP; type: cell-based
Protocol: Cellular ROS levels were measured in LX-2 cells as previously described (see Lee et al. J. Nutr. Biochem. 2013, vol. 25, iss. 4, pp. 404-411). Briefly, LX-2 cells were plated in a black 24-well plate (Wallac Oy, Turku, Finland). When cells reached ˜90% confluency, they were pre-incubated with 5, 10 or 25 μM ASTX for 24 h and subsequently stimulated with 2 ng/mL TGFβ1 or 10 μM tert-butyl hydrogen peroxide (tBHP, Sigma, St. Louis, Mo.) for additional 24 h. cells were then incubated with 5 μM dichlorofluorescein (Sigma, St. Louis, Mo.) for 30 min and fluorescence was read at an excitation wavelength of 485 nm and an emission wavelength of 530 nm. The data were expressed as fluorescent intensity per μg of cell protein.

LX-2 cells [3] = assay: Cytotoxicity test (Cell Counting Kit-8); type: cell-based; settings: ASTX up to 25 μM, 24 h (FIG. 1A)
Protocol: LX-2 cells were incubated with 0-200 μM ASTX for 24 h and its cytotoxicity was measured using a Cell Counting Kit-8 (Dojindo Inc., Rockville, Md.) as previously described (see Yang et al. Food Chem. Toxicol. 2011, vol. 49, pp. 1560-1564). Positive control (0.5 mM SDS) was run in parallel.

aHSCs = assay: Reversion of aHSCs to iHSCs: morphology, qRT-PCR, α-SMA protein; type: cell-based, mouse
Protocol: ASTX, provided by Fuji Chemical Industry Co., Ltd. (Toyama, Japan), was prepared in DMSO as described herein in Example 1. After plated on an uncoated dish, mouse qHSCs were incubated with 25 μM ASTX during activation. aHSCs, which were prepared by culturing qHSCs on an uncoated dish for 6 d, were incubated with 25 μM ASTX for 2 or 4 more days. Also, cells were incubated with 3 μM tert-butyl hydrogen peroxide (tBHP, Thermo Scientific) for 12 h with or without 25 μM ASTX. Medium containing ASTX was replenished daily and DMSO vehicle control was always run in parallel. Human primary HSC were treated with 25 μM ASTX for 24 h, after which they were activated by 3 ng/mL of TGFβ1 (Peprotech, Rocky Hill, N.J.) for 24 h.
Total RNA extraction, cDNA synthesis, and qRT-PCR were conducted using a Bio-Rad CFX96 Real-Time system (Bio-Rad, Hercules, Calif.) as previously described (Id.). Primer sequences will be available upon request.
Whole cell lysates and human tissue protein extracts were prepared and Western blot analysis were performed as described (Id.) using antibodies against α-SMA (Sigma, St. Louis, Mo.), HDAC3 (Santa Cruz Biotechnology, Santa Cruz, Calif.), HDAC4 (Santa Cruz Biotechnology), HDAC9 (Abcam, Cambridge, Mass.; Novus Biologicals, Littleton, Colo.), Col1A1 (Sigma). β-tubulin (Santa Cruz) or glyceraldehyde 3-phosphate dehydrogenase (GAPDH) (Santa Cruz) was used as a loading control.

LX-2 cells [4] = assay: qRT-PCR of LX-2 cells transfected with scramble control or Smad3 siRNA; type: cell-based
Protocol: as §1
LX-2 cells were transfected with either Silencer® Negative Control scrambled siRNA (Ambion, Invitrogen, Grand Island, N.Y.) or siGENOME SMARTpool SMAD3 siRNA (siGenome, Thermo Scientific, Logan, Utah) as described previously (see Angulo N. Engl. J. Med. 2002, vol. 346, pp. 1221-1231). Twenty four hours after the transfection, cells were pretreated with 25 μM ASTX for 12 h, after which they were stimulated by 2 ng/mL TGFβ1 for additional 12 h for subsequent qRT-PCR analysis.

Question: With `CC1=C(/C=C/C(C)=C/C=C/C(C)=C/C=C/C=C(C)/C=C/C=C(C)/C=C/C2=C(C)C(=O)C(O)CC2(C)C)C(C)(C)CC(O)C1=O` (stereo not drawn) [ASTX, astaxanthin] as the compound, how does the “induction of α-SMA mRNA by TGFβ1” value (LX-2 cells [1]; 25 μM ASTX, 3 and 12 h of TGFβ1 stimulation (FIG. 2A)) read?
Answer: The value was “significantly inhibited”.

Question: And the “induction of Col1A1 mRNA by TGFβ1” value (LX-2 cells [1]; 25 μM ASTX, 12 h of TGFβ1 stimulation (FIG. 2A))?
Answer: The value was “significantly inhibited”.

Question: What about the “induction of the fibrogenic genes by TGFβ1” value (LX-2 cells [1]; 10 and 25 μM ASTX, TGFβ1 24 h (FIG. 2B)) of the same compound?
Answer: Its value is “significantly inhibited”.

Question: What about the “TGFβ-induced increases in mRNA levels of TβRI and TβRII” value (LX-2 cells [1]; LX-2 cells, 25 μM ASTX (FIG. 5C)) of the same compound?
Answer: The value was “almost completely abolished”.

Question: What about the “TGFβ1-induced expression of α-SMA and Col1A1 mRNA” value (LX-2 cells [1]; LX-2 cells, 25 μM ASTX, 2 ng/mL TGFβ1 24 h (FIG. 3A)) of the same compound?
Answer: Its value is “significantly attenuated”.

Question: And the “TGFβ1-induced increase in mRNA levels of Smad2, Smad3 and Smad7” value (LX-2 cells [1]; LX-2 cells, 25 μM ASTX, TGFβ1 12 h (FIG. 5C))?
Answer: Its value is “abolished or significantly attenuated”.

Question: And the “basal expression levels of α-SMA and Col1A1 mRNA” value (LX-2 cells [1]; LX-2 cells, 25 μM ASTX, no TGFβ1 (FIG. 3A))?
Answer: The value was “did not alter”.

Question: What about the “TGFβ1-induced NOX4 mRNA levels” value (LX-2 cells [1]; LX-2 cells, P=0.074) of the same compound?
Answer: The value was “decreased TGFβ1-induced NOX4 mRNA levels although it did not reach statistical significance”.

Question: What about the “increase in cellular ROS levels induced by TGFβ1” value (LX-2 cells [2]; 25 μM ASTX, 2 ng/mL TGFβ1) of the same compound?
Answer: The value was “completely abolished”.

Question: And the “increase in cellular ROS levels induced by tBHP” value (LX-2 cells [2]; 25 μM ASTX, 10 μM tBHP)?
Answer: The value was “completely abolished”.

Question: And the “cellular ROS levels increased by TGFβ1 and tBHP” value (LX-2 cells [2]; LX-2 cells pretreated with 5, 10 or 25 μM ASTX 24 h (FIGS. 1B, 1C))?
Answer: The value was “decreased”.

Question: What about the cell viability (LX-2 cells [3]) of the same compound?
Answer: The cell viability was “more than 90%”.

Question: And the “cell morphology (lipid droplets)” value (aHSCs; aHSCs treated with ASTX for 2 or 4 d (FIG. 9A))?
Answer: Its value is “reappearance of cytoplasmic lipid droplets”.

Question: What about the “α-SMA and Col1A1 mRNA” value (aHSCs; aHSCs treated with ASTX for 2 d (FIG. 9B)) of the same compound?
Answer: The value was “significantly decreased”.

Question: And the “ADRP mRNA levels, control vs ASTX-treated” value (aHSCs; aHSCs, ASTX for 2 d (FIG. 9D))?
Answer: Its value is “no significant difference”.

Question: What about the “LRAT mRNA” value (aHSCs; aHSCs, ASTX for 2 d (FIG. 9D)) of the same compound?
Answer: Its value is “markedly increased”.

Question: And the “SREBP1c mRNA levels” value (aHSCs; aHSCs, ASTX for 2 d (FIG. 9D))?
Answer: Its value is “significantly decreased”.

Question: What about the α-SMA protein (aHSCs; aHSCs, day 8, ASTX for 2 d (FIG. 9C)) of the same compound?
Answer: Its α-SMA protein is “significantly decreased”.

Question: What about the “induction of fibrogenic genes by TGFβ1” value (LX-2 cells [4]; LX-2 cells transfected with scrambled control, 25 μM ASTX 12 h (FIG. 4)) of the same compound?
Answer: The value was “attenuated”.

Question: What about the “expression of α-SMA” value (LX-2 cells [4]; Smad3-deficient (siRNA) LX-2 cells) of the same compound?
Answer: The value was “minimal inhibitory effect”.

Question: What about the “increase in TGFβ1 mRNA by TGFβ1 itself” value (LX-2 cells [4]; regardless of Smad3) of the same compound?
Answer: Its value is “inhibited”.
